{"source": "patent US20260174858A1", "about": "“TARGETING THE m6A MRNA DEMETHYLASE FTO” (University of Virginia Patent Foundation, priority 2022, published 2026)", "key": {"[1]": {"assay": "Cell viability under FTO inhibition", "format": "cell-based"}, "Wild type C57BL/6J mice": {"test_system": "Wild type C57BL/6J mice", "assay": "Laser-induced choroidal neovascularization (CNV), CNV volume and F4/80 staining", "format": "in vivo, mouse", "details": "for Neovascularization (CNV volume): FTOi i.p. pretreatment plus 25 ng intravitreous after laser injury, day 7, isolectin B4 staining", "procedure": "Laser photocoagulation (532 nm, 180 mW, 100 ms, 75 μm) (OcuLight GL; IRIDEX Corp., Mountain View, CA, USA) was performed bilaterally (volume studies: 4 spots per eye; RNA analyses: 10 spots per eye) in 6- to 8-week-old mice on day 0 to induce CNV as previously described 1-3. For drug treatment, the mice pretreated with FTO inhibitor (FB23-2, SML2694, Sigma) or vehicle (DMSO) through intraperitoneal injection (i.p, 2 mg/kg). Then, the mice were subjected to laser photocoagulation followed by intravitreous injection of the FTO inhibitor (25 ng/0.5 μl per eye) or vehicle. At day 3 after laser injury, the mice were administered the FTO inhibitor (2 mg/kg) or vehicle via intraperitoneal injection. At day 7, the eyes were collected for fluorescein labeled-isolectin B4 and F4/80 staining and for neovascular volume quantification.\nRPE flat mounts were prepared as previously described 5. Briefly, at day 3 or 7 after laser injury, mice eyes were enucleated and dissected as retina and sclera-RPE-choroid complexes. The RPE-choroid sheets were immediately fixed in 4% paraformaldehyde (Electron Microscopy Sciences, 50-980-495, USA) in phosphate-buffered saline for 1 hour. […] As described previously^1, CNV volumes were determined by labeling with fluorescein labeled Griffonia Simplicifolia Lectin I (GSL I) isolectin B4 (Vector Laboratories, FL-1201, USA). […] FTO expression was visualized by immunolabeling with anti-FTO antibody (AdipoGen Life Sciences, AG-20A-0083, USA), and the specificity of labeling was assessed using isotype serum immunolabeling. […] Fluorescence images were captured by Nikon AIR laser scanning confocal microscope.\nLaser photocoagulation (532 nm, 180 mW, 100 ms, 75 μm) (OcuLight GL; IRIDEX Corp., Mountain View, CA, USA) was performed bilaterally (volume studies: four spots per eye; protein analyses: 20 spots per eye) in 6- to 8-week-old male mice on day 0 to induce CNV in a masked fashion. […] Choroidal neovascularization was visualized using a blue argon laser wavelength (488 nm) and a scanning laser confocal microscope and quantified using Image J software."}, "In vivo retinal toxicity": {"assay": "In vivo retinal toxicity", "details": "FTO inhibition"}, "mouse BMDMs": {"test_system": "mouse BMDMs", "assay": "VEGFA release in mouse BMDMs (ELISA)", "format": "cell-based", "details": "FTOi 20 uM 12 hours, with or without LPS 250 ng/ml 6 hours, supernatant ELISA", "procedure": "Primary WT or mutant mouse bone marrow derived macrophages (BMDMs) were isolated as previously described (4). BMDMs were cultured in IMDM (Gibco) basal medium containing 10% fetal bovine serum (FBS), 30% L929 supernatants, nonessential amino acids, sodium pyruvate, 2-mercaptoethanol, and antibiotics. THP-1 cells were cultured in RPMI 1640 medium with 10% FBS and antibiotics. Human RPE cells were isolated as previously described and cultured in DMEM medium with 10% FBS and antibiotics. All cells were maintained at 37° C. in a 5% CO2 environment.\nThe RPE-choroid complex was isolated from mouse eyes on day 3 after laser injury and treatment with FTO inhibitor or vehicle. Eye tissues were lysed by sonication with immunoprecipitation assay (RIPA) buffer (Sigma-Aldrich, R0278, USA) containing protease inhibitor (Sigma-Aldrich, 11836170001, USA), on ice for 15 minutes. The lysate was centrifuged at 20,000×g for 15 minutes at 4° C., and total protein in the lysates was quantified using the Thermo Scientific™ Pierce™ BCA™ Protein Assay (Fisher Scientific, PI23225, USA). VEGFA protein levels in the supernatants were measured by VEGF DuoSet ELISA (R&D Systems, DY493, USA), following the manufacturer's instructions. Mouse BMDMs or human THP-1 cells (5×10^5 cells per well) were plated into six-well plates in complete medium and allowed to adhere overnight. Cells were then incubated for 24 hours in the absence or presence of various doses of FTO inhibitor or METTL3 inhibitors (STM2457, Selleck Chemicals). […] The siRNAs (siFto: 5′-P.G.A.G.G.A.U.C.C.A.A.G.G.C.A.A.A.G.A.U.dT.dT 3′ (SEQ ID NO: 38); siCtrl: 5′-P.U.A.A.G.G.C.U.A.U.G.A.A.G.A.G.A.U.dT.dT 3′; SEQ ID NO: 39), were designed and synthesized by GE Healthcare Dharmacon, were transfected twice with BMDMs by using DharmaFECT 4 Transfection Reagent (Dharmacon, T-2004, USA). VEGFA levels in the supernatants were measured by mouse or human VEGF DuoSet ELISA (R&D Systems, DY493 or DY293B, USA), following the manufacturer's instructions."}}, "data": [{"smiles": "Cc1noc(C)c1-c1cc(Cl)c(Nc2ccccc2C(=O)NO)c(Cl)c1", "note": "[FB23-2]", "values": [{"measurement": "Adverse effects on cell viability", "setting": "[1]", "value": "minimal adverse effects on cell viability"}, {"measurement": "Neovascularization (CNV volume)", "setting": "Wild type C57BL/6J mice", "value": "inhibits angiogenesis"}, {"measurement": "Neovascularization (CNV volume)", "setting": "Wild type C57BL/6J mice; listed as selective inhibitor", "value": "significant reduction in neovascularization"}, {"measurement": "F4/80 macrophage recruitment", "setting": "Wild type C57BL/6J mice; laser-induced CNV, FTO inhibitor in vivo, F4/80 staining", "value": "not in F4/80 macrophage recruitment"}, {"measurement": "In vivo retinal toxicity", "setting": "In vivo retinal toxicity", "value": "did not observe in vivo retinal toxicity"}, {"measurement": "VEGFA release", "setting": "mouse BMDMs", "value": "inhibits VEGFA release"}, {"measurement": "VEGFA release", "setting": "mouse BMDMs; listed as FTO inhibitor", "value": "reduction in mouse VEGFA release"}]}]}
